Experimental data reported in patent US20180369111A1, “COMPOSITION COMPRISING BAICALIN AT A HIGH CONCENTRATION” (L'OREAL, priority 2015, published 2018).

Assay: Solubility and chemical stability of baicalin in aqueous medium as a function of pH
Type: physicochemical
Text: Baicalin is a polyphenol displaying an antioxidant activity. There is thus a need, for consumers, to provide cosmetic compositions comprising baicalin, or an extract containing same, at a high concentration and having a greater antioxidant efficacy than the cosmetic compositions known in the prior art comprising baicalin. However, the solubility of baicalin is very low in aqueous medium. It is therefore very difficult to incorporate in a composition, in particular a cosmetic composition, at a high mass concentration, in particular at a mass concentration greater than 0.2%. At a mass concentration greater than 0.2%, the appearance of the presence of crystallized baicalin is observed. The present inventors have identified that the solubility of baicalin was increased with the pH.
In particular, the method implemented to incorporate baicalin, or an extract containing same, at a high mass concentration, i.e. for example greater than 0.5% in the aqueous phase of a composition consists, in a first transitory step, of completely dissolving the baicalin in aqueous phase in a basic medium using a base to raise the pH to a value greater than 6. Under these conditions, it is possible to prepare aqueous solutions comprising up to 10% baicalin as a mass concentration, without using hydrotropic agents.
Baicalin is presented in the form of a yellow powder, having a purity optionally greater than 90 or 95%. Baicalin crystals may be presented in the form of needles.

Compound: O=C(O)[C@H]1O[C@@H](Oc2cc3oc(-c4ccccc4)cc(=O)c3c(O)c2O)[C@H](O)[C@@H](O)[C@@H]1O [Baicalin]
- baicalin mass concentration attainable in aqueous solution: up to 10%
- chemical stability of baicalin (at a pH greater than 6): chemically unstable and is degraded
- mass concentration above which crystallized baicalin appears (in a composition, mass concentration): greater than 0.2%
